Values quoted from earlier work as cited in patent US11260023B2, “Topical compositions containing rofecoxib and methods of making and using the same” (BRIORI BIOTECH, LLC, priority 2020, dated 2022).

Conditions: of the solvent; cited from earlier work

| Compound | logP | Δd (dispersion) | Δh (hydrogen bonding) | Δp (polar) |
| --- | --- | --- | --- | --- |
| CC(O)CC(C)(C)O (centres unmarked) [2-Methyl-pentane-2,4-diol, 2-methylpentane-2,4-diol] | 0.3 | 16.4 MPa^1/2 | 20.6 MPa^1/2 | 8 MPa^1/2 |
| CC(C)=O [Acetone, acetone] | −0.1 | 15.5 MPa^1/2 | 7 MPa^1/2 | 10.4 MPa^1/2 |
| OCc1ccccc1 [Benzyl Alcohol, benzyl alcohol] |  | 18.4 MPa^1/2 | 13.7 MPa^1/2 | 6.3 MPa^1/2 |
| CCOC(=O)CCCCCCCCC(=O)OCC [Diethyl Sebacate, diethyl sebacate] | 3.5 | 16 MPa^1/2 | 4.7 MPa^1/2 | 4 MPa^1/2 |
| CCOCCOCCO [Diethylene Glycol Monoethyl Ether, diethylene glycol monoethyl ether] | −0.5 | 16.2 MPa^1/2 | 14.3 MPa^1/2 | 9.2 MPa^1/2 |
| CC(C)OC(=O)CCCCC(=O)OC(C)C [Diisopropyl Adipate, diisopropyl adipate] | 2.2 |  |  |  |
| CO[C@H]1CO[C@H]2[C@@H]1OC[C@H]2OC [Dimethyl Isosorbide, isosorbide dimethyl ether] | −0.6 | 17.6 MPa^1/2 | 7.5 MPa^1/2 | 7.1 MPa^1/2 |
| C[S+](C)[O-] [Dimethyl Sulfoxide, dimethyl sulfoxide] | −0.6 | 18.4 MPa^1/2 | 10.2 MPa^1/2 | 16.4 MPa^1/2 |
| CCOC(C)=O [Ethyl Acetate, ethyl acetate] | 0.76 | 15.8 MPa^1/2 | 7.2 MPa^1/2 | 5.3 MPa^1/2 |
| CCCCCCCCCCCCCC(=O)OC(C)C [Isopropyl tetradecanoate, isopropyl tetradecanoate] |  | 16.2 MPa^1/2 | 3.7 MPa^1/2 | 2.4 MPa^1/2 |
| CN1CCCC1=O [N-Methyl-2-Pyrrolidone, N-methyl-2-pyrrolidone] | 0.5 | 18 MPa^1/2 | 7.2 MPa^1/2 | 12.3 MPa^1/2 |
| CC1COC(=O)O1 (centres unmarked) [Propylene Carbonate, propylene carbonate] | −0.4 | 20 MPa^1/2 | 4.1 MPa^1/2 | 18 MPa^1/2 |
| CC(=O)OCC(C)OC(C)=O (centres unmarked) [Propylene Glycol Diacetate, propylene glycol diacetate] | 0.7 |  |  |  |
| CC(O)CO (centres unmarked) [Propylene Glycol, MP, propylene glycol] | −0.9 | 16.8 MPa^1/2 | 23.3 MPa^1/2 | 9.4 MPa^1/2 |
| CC1=CCC(C(C)(C)O)CC1 (stereo not drawn) [alpha-Terpineol 95.0+ %, alpha-terpineol] | 1.8 | 17.1 MPa^1/2 | 7.6 MPa^1/2 | 3.6 MPa^1/2 |

Conditions: after 24 hours after 25 hours; cited from earlier work

| Compound | amount of diclofenac that penetrates into the blood |
| --- | --- |
| O=C(O)Cc1ccccc1Nc1c(Cl)cccc1Cl [diclofenac] | 0.067 mg |
